According to patent US20230232833A1, “Synergistic Compositions for the Control of Mosquito-Borne Diseases” (Universite d'Angers, priority 2020, published 2023):

How the values were obtained:
[1] = system: Anopheles gambiae larvae of resistant strain AcerKis; assay: Larval sensitivity test (cup test), AcerKis strain; assay type: in vivo; settings: for LC10 - 24 hours / LC10 - 48 hours: AcerKis larvae, graphical projection from log-probit regression curves; for LC10 - 24 hours: 24 hours exposure; for LC10 - 48 hours: 48 hours exposure
Procedure: Larval Testing Protocol. The larval sensitivity test or cup test, which was used in the present study, assesses the sensitivity of mosquito larvae to insecticides and repellents. The larvae were placed in cups containing 100 mL of osmosis water added with the substance to be tested or with only solvent in the case of the controls (see FIG. 3). Four containers (cups) of 25 larvae were exposed to one modality, for a total of 100 larvae. The mortality rate was observed 24 hours after exposure to the insecticide. The mosquitoes used were late L3/early L4 larvae (last larval stages) of Anopheles gambiae, sensitive Kis reference strain and a resistant strain AcerKis, grown in the MIVEGEC laboratory under standardized conditions.
(§1) Methodology of the WHO-certified Test of the Sensitivity of Larvae to Insectivides and Repellents. The sensitivity to insecticides and repellents of the Anopheles gambia mosquito larvae of the sensitive Kis strain and of the resistant AcerKis and KdrKis strains, was determined using the larval sensitivity test (or WHO-certified cup test). The larvae, selected at the L3/L4 stages, were placed in cups containing 100 mL of osmosis water in the presence of the substance to be tested or only the solvent in the case of controls. Four cups of 25 larvae were exposed to one modality, for a total of 100 larvae. The mortality rate was observed 24 […] and 48 hours after exposure to the insecticide. The mortality rates presented herein were corrected for the mortality observed in the controls of each replicate according to the Abbott formula (Abbott, J. Econom. Entomol., 1925, 18: 265-267).

[2] = system: Anopheles gambiae larvae of resistant strain KdrKis; assay: Larval sensitivity test (WHO-certified cup test), KdrKis strain; assay type: in vivo; settings: for LC10 - 24 hours / LC10 - 48 hours: KdrKis larvae, graphical projection from log-probit regression curves; for LC10 - 24 hours: 24 hours exposure; for LC10 - 48 hours: 48 hours exposure
Procedure: as §1

## N#C/N=C1\SCCN1Cc1ccc(Cl)nc1 [Thiacloprid, {(2Z)-3-[(6-Chloropyridin-3-yl)methyl]-1,3-thiazolidin-2-ylidene}cyanamide]
[1]
  LC10 - 24 hours: 0.02 mg/L
  LC10 - 48 hours: 0.01 mg/L
[2]
  LC10 - 24 hours: 0.02 mg/L
  LC10 - 48 hours: 0.01 mg/L

## CCCCN(CCC(=O)OCC)C(C)=O [IR3535, ethyl N-acetyl-N-butyl-β-alaninate]
[1]; AcerKis, IR3535 alone 1000 to 4000 mg/L, 24 and 48 hours
  Mortality rate of larvae: less than 5%
[2]; KdrKis, IR3535 alone 1000 to 4000 mg/L, 24 and 48 hours
  Mortality rate of larvae: less than 5%

## CN1COCN(Cc2cnc(Cl)s2)C1=N[N+](=O)[O-] [Thiamethoxam, 3-[(2-Chloro-1,3-thiazol-5-yl)methyl]-5-methyl-N-nitro-1,3,5-oxadiazinan-4-imine]
[1]
  LC10 - 24 hours: 0.04 mg/L
  LC10 - 48 hours: 0.01 mg/L
[2]
  LC10 - 24 hours: 0.04 mg/L
  LC10 - 48 hours: 0.02 mg/L
